Laboratory results as given in patent US20260027083A1, “USE OF PPAR AGONIST FOR IMPROVEMENT OF ENERGY METABOLISM” (NOVMETAPHARMA CO., LTD., priority 2022, published 2026).

Legend:
[1] = target: T1, His-tagged recombinant human PPARβ/δ ligand binding domain (Homo sapiens, UniProt Q03181); experiment: CNBr-bead conjugation (pull-down) assay, hPPARβ/δ-LBD; conditions: CNBr-coupled drug, positive control GW501516, FIG. 2
T1 construct: made in house; host or cells: E. coli (DE3, Rosetta)
T1 sequence (Q03181 211-439 limits assumed): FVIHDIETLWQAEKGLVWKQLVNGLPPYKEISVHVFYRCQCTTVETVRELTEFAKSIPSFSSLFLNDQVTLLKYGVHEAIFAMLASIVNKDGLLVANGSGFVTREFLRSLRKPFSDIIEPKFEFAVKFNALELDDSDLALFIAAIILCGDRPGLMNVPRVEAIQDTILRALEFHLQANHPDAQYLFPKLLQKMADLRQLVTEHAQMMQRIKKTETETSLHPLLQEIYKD
Description: (§1) A compound of the present invention represented by Chemical Formula 1 was synthesized by DAEJUNG Chemicals & Metals (Gyeonggi-do, Korea) (indicated as ‘D6’ in the drawing). WY14643, GW501516, and rosiglitazone were purchased from Sigma-Aldrich (St. Louis, MO, USA). The compounds were dissolved in dimethyl sulfoxide (DMSO), diluted in a culture solution, and used in the experiment. Cyanogen bromide (CNBr)-activated Sepharose 4B was purchased from Sigma-Aldrich (St. Louis, MO, USA). His-tagged recombinant human PPAR-ligand binding domain (LBD) was expressed in E. coli (DE3, Rosetta) and then purified and used. A His antibody was purchased from Cell Signaling Technology (Danvers, Massachusetts, USA). 3-Isobutyl-1-methylxanthine (IBMX), dexamethasone, bovine pancreatic insulin, and Oil Red O were purchased from Sigma-Aldrich (St. Louis, MO, USA). A PRO-PREP™ Protein Extraction Solution was purchased from iNtRON Biotechnology (iNtRON Biotech., Korea). […]
(§2) 100 mg of CNBr-activated Sepharose 4B was added to an e-tube, and then the beads were activated by rotating with 1 ml of 1 mM HCl for 10 minutes at room temperature. […] Each e-tube was added with the drug and rotated overnight at 4° C., at which time the concentration was measured to be 20 μM. […] The supernatant was completely removed, and the pellet was detected by Western blotting. […]

high-fat diet mice [2] = experiment: Histology of adipose tissues of high-fat diet mice (H&E); type: in vivo, C57BL/6J mice; conditions: 5 mg/kg/day oral, 60% HFD
Description: (§3) The care and use of experimental animals were carried out with the approval of the Institutional Animal Care and Use Committee of Pohang University of Science and Technology. C57BL/6J mice were purchased from Japan SLC, Inc. 50 four-week-old male C57/BL/6J mice were acclimated for 2 weeks. The mice were randomly divided and orally administered with vehicle or 5 mg/kg/day of D6 or WY14643 for 13 weeks (oral gavage), and obesity was induced by a 60% high-fat diet (#D12492, Research diets, NJ, USA). Body weights and food intakes were measured weekly from 6 weeks of age, and after 16 weeks of age, adipose tissue and muscle volumes were measured using a Trimodality imaging system.
Mouse tissues were fixed with 10% formalin solution (Sigma-Aldrich, St. Louis, MO, USA), and paraffin-embedded tissues were segmented and stained with hematoxylin and eosin (H&E) staining and Sirius Red staining (IHC world, Woodstock, USA).
To observe the effects of the compound represented by Chemical Formula 1 on metabolic diseases, biopsy was performed on adipose tissues of high-fat diet mice.

high-fat diet mice [3] = experiment: Intraperitoneal insulin tolerance test (IP-ITT) in high-fat diet mice; type: in vivo, C57BL/6J mice; conditions: 5 mg/kg/day oral, 60% HFD, insulin 0.75 U/kg i.p. after 3 h fasting, FIG. 11
Description: as §3
An insulin tolerance test (ITT) was performed on mice after 17 weeks of age after fasting for 3 hours and intraperitoneal insulin administration at 0.75 U/kg body weight. The blood glucose levels were measured at 0, 15, 30, 45, 60 and 90 minutes after tail vein injection.
To confirm a metabolic disease inhibitory effect of the compound represented by Chemical Formula 1 through animal experiments, mice were acclimated for 2 weeks, and then obesity was induced by feeding a 60% high fat diet (HFD) and orally administered with vehicle or 5 mg/kg/day of the compound represented by Chemical Formula 1 (D6) or WY14643 for 13 weeks. […]

[4] = target: T2, His-tagged recombinant human PPARα ligand binding domain (Homo sapiens, UniProt Q07869); experiment: CNBr-bead conjugation (pull-down) assay, hPPARα-LBD; conditions: CNBr-coupled drug, positive control WY14643, FIG. 2
T2 construct: made in house; host or cells: E. coli (DE3, Rosetta)
T2 sequence (Q07869 239-466 limits assumed): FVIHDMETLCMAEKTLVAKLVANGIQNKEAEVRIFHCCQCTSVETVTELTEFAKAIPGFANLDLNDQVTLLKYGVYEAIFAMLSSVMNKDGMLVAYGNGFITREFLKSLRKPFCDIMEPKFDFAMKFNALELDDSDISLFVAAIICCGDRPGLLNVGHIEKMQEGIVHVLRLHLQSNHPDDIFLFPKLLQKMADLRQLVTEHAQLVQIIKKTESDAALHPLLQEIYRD
Description: as §1, §2

Compound: COc1ccc(-c2cc(=O)oc3c(C)c(OC(=O)[C@H](Cc4c[nH]c5ccccc45)NC(=O)OC(C)(C)C)ccc23)cc1 [Chemical Formula 1, [4-(4-methoxyphenyl)-8-methyl-2-oxochromen-7-yl] (2S)-3-(1H-indol-3-yl)-2-[(2-methylpropan-2-yl)oxycarbonylamino]propanoate]
- conjugation (binding) to hPPARβ/δ-LBD, Western blotting [1]: as much potently as a PPAR agonist used as a positive control
- adipocyte sizes in adipose tissue (H&E staining) (high-fat diet mice [2]; FIG. 14): reduced
- adipocyte size distribution, brown adipose tissue (BAT) (high-fat diet mice [2]; FIG. 15): reducing adipocyte sizes
- adipocyte size distribution, epididymal white adipose tissue (eWAT) (high-fat diet mice [2]; FIG. 15): reducing adipocyte sizes
- adipocyte size distribution, inguinal WAT (iWAT) (high-fat diet mice [2]; FIG. 15): reducing adipocyte sizes
- insulin resistance (IP-ITT) (high-fat diet mice [3]): improved
- conjugation (binding) to hPPARα-LBD, Western blotting [4]: as much potently as a PPAR agonist used as a positive control
